Measurements reported in patent EP0596406B1, “Imidazo (1,2-a) Pyridines as bradykinin antagonists” (FUJISAWA PHARMACEUTICAL CO., LTD., priority 1992, dated 1994).
Where a name gives a salt, the structure may show the parent alone.

These compounds were tested against T1, Bradykinin receptor (Cavia porcellus, UniProt O70526) (assay: ^3H-Bradykinin receptor binding (crude guinea pig ileum membrane)). Details: drug 1 x 10^-5M; ^3H-Bradykinin 0.06 nM; crude ileum membrane suspension; room temperature for 60 minutes; 10 µM.
T1 construct: The ileum was removed and homogenized in buffer; from tissue; host or cells: guinea pig ileum, crude membrane suspension
T1 sequence (O70526 1-372): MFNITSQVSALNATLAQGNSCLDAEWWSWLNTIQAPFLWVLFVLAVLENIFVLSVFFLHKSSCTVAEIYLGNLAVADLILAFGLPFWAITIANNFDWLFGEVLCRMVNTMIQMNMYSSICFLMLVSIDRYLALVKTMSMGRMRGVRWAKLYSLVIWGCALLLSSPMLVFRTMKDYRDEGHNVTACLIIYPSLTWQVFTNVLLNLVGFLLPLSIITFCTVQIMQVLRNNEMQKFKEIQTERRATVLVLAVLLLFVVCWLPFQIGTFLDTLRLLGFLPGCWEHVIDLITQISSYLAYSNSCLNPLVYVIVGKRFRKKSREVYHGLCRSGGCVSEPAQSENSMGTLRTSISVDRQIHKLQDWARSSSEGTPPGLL
Set-up: species or system guinea pigs
Method: (a) Crude ileum membrane preparation
Male Hartly strain guinea pigs were sacrificed by decapitation. The ileum was removed and homogenized in buffer (50 mM trimethylaminoethanesulfonic acid (TES), 1 mM 1,10-phenanthroline pH 6.8). The homogenate was centrifuged (1000 xg, 20 minutes) to remove tissue clumps and the supernatant was centrifuges (100,000 xg, 60 minutes) to yield a pellet. The pellet was resuspended in buffer (50 mM TES, 1 mM 1,10-phenanthroline, 140 mg/ℓ bacitracin, 1 mM dithiothreiol, 0.1 % bovine serum albumin pH 6.8) and homogenized with a glass-teflon homogenizer to yield suspension which was referred to as crude membrane suspension. The obtained membrane suspension was stored at -80°C until use.
(b) ^3H-Bradykinin binding to the membrane
The frozen crude membrane suspension was thawed. In binding assays, ^3H-Bradykinin (0.06 nM) and drug (1 x 10^-5M) were incubated with 50 µl of the membrane suspension at room temperature for 60 minutes in a final volume of 250 µl. Separation of receptor-bound from free ^3H-Bradykinin is achieved by immediate filtration under vacuum and washed three times with 5 ml of ice-cold buffer (50 mM Tris-HCl pH 7.5). Non-specific binding was defined as binding in the presence of 0.1 µM Bradykinin. The radioactivity retained on rinsed filters was determined by a liquid-scintillation counter.

| Structure (SMILES) | Inhibition % of ^3H-Bradykinin binding (concentration : 1 x 10^-5M) [%] |
| --- | --- |
| CCCNC(=O)NCC(=O)N(C)c1ccc(Cl)c(COc2cccn3c(Br)c(C)nc23)c1Cl.Cl [61-(51), 3-Bromo-8-[2,6-dichloro-3-[N-(N'-n-propylureidoacetyl)-N-methylamino]benzyloxy]-2-methylimidazo[1,2-a]pyridine hydrochloride] | 100 |
| Cc1nc2c(OCc3c(Cl)ccc(N(C)C(=O)CNC(=O)Nc4cccnc4)c3Cl)cccn2c1Br.Cl.Cl [61-(54), 3-Bromo-8-[2,6-dichloro-3-[N-[N'-(3-pyridyl)ureidoacetyl]-N-methylamino]benzyloxy]-2-methylimidazo[1,2-a]pyridine dihydrochloride] | 100 |

Same assay, conditions: drug 1 x 10^-5M; ^3H-Bradykinin 0.06 nM; crude ileum membrane suspension; room temperature for 60 minutes; read-out: Inhibition % of ^3H-Bradykinin binding (concentration : 1 x 10^-5M)

| Structure (SMILES) | inhibition at 10 µM [%] |
| --- | --- |
| COCC(=O)NCC(=O)CC(=O)N(C)c1ccc(Cl)c(COc2cccn3c(Br)c(C)nc23)c1Cl [61-(16), 3-Bromo-8-[2,6-dichloro-3-[N-(methoxyacetylglycyl)acetyl-N-methylamino]benzyloxy]-2-methylimidazo[1,2-a]pyridine hydrochloride] | 100 |
| Cc1nc2c(OCc3c(Cl)ccc(N(C)C(=O)CNC(=O)[C@H]4CCCN4)c3Cl)cccn2c1Br [Example 49, 3-Bromo-8-[2,6-dichloro-3-[N-(D-prolylglycyl)-N-methylamino]benzyloxy]-2-methylimidazo[1,2-a]pyridine dihydrochloride] | 100 |
| Cc1nc2c(OCc3c(Cl)ccc(N(C)C(=O)CNC(=S)Nc4ccccc4)c3Cl)cccn2c1Cl [Example 47, 3-Chloro-8-[2,6-dichloro-3-[N-(N'-phenylthioureidoacetyl)-N-methylamino]benzyloxy]-2-methylimidazo[1,2-a]pyridine] | 100 |
| Cc1nc2c(OCc3c(Cl)ccc([N+](=O)[O-])c3Cl)cccn2c1Br [Example 60, 3-bromo-8-(2,6-dichloro-3-nitrobenzyloxy)-2-methylimidazo[1,2-a]pyridine hydrochloride] | 100 |
| CCNC(=O)NCC(=O)N(C)c1ccc(Cl)c(COc2cccn3c(Br)c(C)nc23)c1Cl [61-(28), 3-Bromo-8-[2,6-dichloro-3-[N-(N'-ethylureidoacetyl)-N-methylamino]benzyloxy]-2-methylimidazo[1,2-a]pyridine hydrochloride] | 99 |
| Cc1nc2c(OCc3c(Cl)ccc(N(C)C(=O)CNC(=O)c4ccccc4)c3Cl)cccn2c1Br [61-(11), 8-[3-[N-(Benzoylglycyl)-N-methylamino]-2,6-dichlorobenzyloxy]-3-bromo-2-methylimidazo[1,2-a]pyridine hydrochloride] | 98 |
| CC(=O)NCC(=O)NCC(=O)N(C)c1ccc(Cl)c(COc2cccn3c(Br)c(C)nc23)c1Cl [61-(18), 8-[3-[N-(Acetylglycylglycyl)-N-methylamino]-2,6-dichlorobenzyloxy]-3-bromo-2-methylimidazo[1,2-a]pyridine hydrochloride] | 97 |
| Cc1nc2c(OCc3c(Cl)ccc(N(C)C(=O)CNC(=O)Cc4ccccc4)c3Cl)cccn2c1Br [61-(13), 3-Bromo-8-[2,6-dichloro-3-[N-(phenylacetylglycyl)-N-methylamino]benzyloxy]-2-methylimidazo[1,2-a]pyridine hydrochloride] | 98 |

Now from value to compound:

| inhibition at 10 µM [%] | Structure (SMILES) |
| --- | --- |
| 95 | CC(=O)N(C)c1ccc(Cl)c(COc2cccn3c(Br)c(C)nc23)c1Cl [61-(1), 3-Bromo-8-[2,6-dichloro-3-(N-acetyl-N-methylamino)benzyloxy]-2-methylimidazo[1,2-a]pyridine hydrochloride] |
| 99 | CC(=O)NCC(=O)N(C)c1ccc(Cl)c(COc2cccn3c(Br)c(C)nc23)c1Cl [61-(5), 8-[3-[N-(Acetylglycyl)-N-methylamino]-2,6-dichlorobenzyloxy]-3-bromo-2-methylimidazo[1,2-a]pyridine hydrochloride] |
| 100 | Cc1nc2c(OCc3c(Cl)ccc(N(C)C(=O)CNC(C)C)c3Cl)cccn2c1Br [61-(23), 3-Bromo-8-[2,6-dichloro-3-[N-(isopropylglycyl)-N-methylamino]benzyloxy]-2-methylimidazo[1,2-a]pyridine dihydrochloride] |
| 100 | CCCC(=O)NCC(=O)N(C)c1ccc(Cl)c(COc2cccn3c(Br)c(C)nc23)c1Cl [61-(7), 3-Bromo-8-[3-[N-(butyrylglycyl)-N-methylamino]-2,6-dichlorobenzyloxy]-2-methylimidazo[1,2-a]pyridine hydrochloride] |
| 100 | Cc1nc2c(OCc3c(Cl)ccc(N(C)C(=O)CNC(=O)CN(C)C)c3Cl)cccn2c1Br [61-(41), 3-Bromo-8-[2,6-dichloro-3-[N-[(N,N-dimethylglycyl)glycyl]-N-methylamino]benzyloxy]-2-methylimidazo[1,2-a]pyridine dihydrochloride] |

Same assay, conditions: read-out: Inhibition % of ^3H-Bradykinin binding (concentration : 1 x 10^-5M)

| Structure (SMILES) | inhibition at 10 µM [%] |
| --- | --- |
| Cc1nc2c(OCc3c(Cl)ccc(N(C)C(=O)CNC(=O)Oc4ccc([N+](=O)[O-])cc4)c3Cl)cccn2c1Br [40-(21), 3-Bromo-8-[2,6-dichloro-3-[N-(4-nitrophenoxycarbonylglycyl)-N-methylamino]benzyloxy]-2-methylimidazo[1,2-a]pyridine] | 97 |
